According to patent US9051290B2, “Biaryl phosphodiesterase inhibitors” (LEO PHARMA A/S, priority 2010, dated 2015):

Each compound was assayed against Human recombinant PDE4 (Genbank accession no NM—006203) (Homo sapiens, UniProt Q08499) (assay: PDE4 assay (SPA, cleavage of cAMP)). Details: 1 hour incubation, test compound up to 10 μM, cAMP 1×10^−5M, read-out: PDE4 IC50 range.
Human recombinant PDE4 (Genbank accession no NM—006203), sequence (Q08499 1-673 isoform Q08499-2): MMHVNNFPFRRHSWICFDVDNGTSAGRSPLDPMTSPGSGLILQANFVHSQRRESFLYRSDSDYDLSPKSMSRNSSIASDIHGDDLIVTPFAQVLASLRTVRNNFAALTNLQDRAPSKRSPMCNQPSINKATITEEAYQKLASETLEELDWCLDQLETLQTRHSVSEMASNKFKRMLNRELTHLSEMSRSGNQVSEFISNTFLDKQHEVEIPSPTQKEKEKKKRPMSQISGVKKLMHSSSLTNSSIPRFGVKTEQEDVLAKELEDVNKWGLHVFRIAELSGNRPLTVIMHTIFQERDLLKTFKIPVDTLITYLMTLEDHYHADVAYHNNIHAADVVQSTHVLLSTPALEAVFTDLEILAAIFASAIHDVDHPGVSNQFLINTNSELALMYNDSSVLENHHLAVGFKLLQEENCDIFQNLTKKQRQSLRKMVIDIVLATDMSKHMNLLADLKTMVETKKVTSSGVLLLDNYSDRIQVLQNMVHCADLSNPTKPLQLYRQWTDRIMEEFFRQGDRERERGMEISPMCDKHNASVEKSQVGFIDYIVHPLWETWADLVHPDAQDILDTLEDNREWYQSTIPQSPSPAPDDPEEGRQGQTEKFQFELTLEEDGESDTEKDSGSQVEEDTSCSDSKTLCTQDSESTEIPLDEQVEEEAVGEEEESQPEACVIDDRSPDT
Assay type: biochemical
Description: Human recombinant PDE4 (Genbank accession no NM_006203) was incubated for 1 hour with the test compound at concentrations up to 10 μM, with cAMP (1×10^−5M), and with a low amount (0.021 MBq) of radioactively labelled cAMP. At the end of the incubation, the cleavage of the substrate was evaluated by the binding of the AMP product to SPA beads, which generate chemoluminescence when bound to the radioactive tracer. The AMP product inhibited the binding of the radioactive tracer to the beads, and the luminescent signal was competed.
The results were calculated as the molar concentrations resulting in 50% inhibition of the substrate cleavage compared to controls samples, and are expressed as a range of IC50 (M).
The compounds of the present invention were tested in the PDE4 assay.
`COc1ccc(-c2cccc3c2CCC3=O)c(OCCC(C)C)c1OC` [Compound 101, 4-[3,4-Dimethoxy-2-(3-methyl-butoxy)-phenyl]-indan-1-one] showed an IC50 of less than 100 nM.
`COc1ccc(-c2cccc3c2CCC3=O)c(OCC2CCC2)c1OC` [Compound 102, 4-(2-Cyclobutylmethoxy-3,4-dimethoxy-phenyl)-indan-1-one] gave an IC50 of less than 100 nM.
Work on `COc1ccc(-c2cccc3c2CCC3=O)c(OCc2ccc(S(C)(=O)=O)cc2)c1OC` [Compound 103, 4-[2-(4-Methanesulfonyl-benzyloxy)-3,4-dimethoxy-phenyl]-indan-1-one] yielded an IC50 of less than 100 nM.
`COc1ccc(-c2cccc3c2CCC3=O)c(OCC2(CO)COC2)c1OC` [Compound 104, 4-[2-(3-Hydroxymethyl-oxetan-3-ylmethoxy)-3,4-dimethoxy-phenyl]-indan-1-one] showed an IC50 of less than 100 nM.
`COc1ccc(-c2cccc3c2CCC3=O)c(OCCC(C)(C)C)c1OC` [Compound 105, 4-[2-(3,3-Dimethyl-butoxy)-3,4-dimethoxy-phenyl]-indan-1-one] was tested, and the IC50 was less than 100 nM.
`COc1ccc(-c2cccc3c2CCC3=O)c(OCc2ccc(C(N)=O)cc2)c1OC` [Compound 106, 4-[2,3-Dimethoxy-6-(1-oxo-indan-4-yl)-phenoxymethyl]-benzamide] gave an IC50 of less than 100 nM.
`COc1ccc(-c2cccc3c2CCC3=O)c(OCC(C)(C)CO)c1OC` [Compound 107, 4-[2-(3-Hydroxy-2,2-dimethyl-propoxy)-3,4-dimethoxy-phenyl]-indan-1-one] showed an IC50 of less than 100 nM.
With `CNC(=O)c1ccc(COc2c(-c3cccc4c3CCC4=O)ccc(OC)c2OC)cc1` [Compound 108, 4-[2,3-Dimethoxy-6-(1-oxo-indan-4-yl)-phenoxymethyl]-N-methyl-benzamide] the IC50 was less than 100 nM.
Compound `COc1ccc(-c2cccc3c2CCC3=O)c(OCc2ccc(C(=O)N(C)C)cc2)c1OC` [Compound 109, 4-[2,3-Dimethoxy-6-(1-oxo-indan-4-yl)-phenoxymethyl]-N,N-dimethyl-benzamide] has an IC50 of less than 100 nM.
With `COc1ccc(-c2cccc3c2CCC3=O)c(OCc2cccc(C(=O)N(C)C)c2)c1OC` [Compound 110, 3-[2,3-Dimethoxy-6-(1-oxo-indan-4-yl)-phenoxymethyl]-N,N-dimethyl-benzamide] the IC50 was less than 100 nM.
Compound `COc1ccc(-c2cccc3c2CCC3=O)c(OCc2cccc(S(=O)(=O)N(C)C)c2)c1OC` [Compound 111, 3-[2,3-Dimethoxy-6-(1-oxo-indan-4-yl)-phenoxymethyl]-N,N-dimethyl-benzenesulfonamide] has an IC50 of less than 100 nM.
Work on `COc1ccc(-c2cccc3c2CCC3=O)c(OCc2ccc(S(N)(=O)=O)cc2)c1OC` [Compound 112, 4-[2,3-Dimethoxy-6-(1-oxo-indan-4-yl)-phenoxymethyl]-benzenesulfonamide] yielded an IC50 of less than 100 nM.
Work on `COc1ccc(-c2cccc3c2CCC3=O)c(OCc2cccc(S(C)(=O)=O)c2)c1OC` [Compound 113, 4-[2-(3-Methanesulfonyl-benzyloxy)-3,4-dimethoxy-phenyl]-indan-1-one] yielded an IC50 of less than 100 nM.
For `COc1ccc(-c2cccc3c2CCC3=O)c(OCc2cccc(C(N)=O)c2)c1OC` [Compound 114, 3-[2,3-Dimethoxy-6-(1-oxo-indan-4-yl)-phenoxymethyl]-benzamide], the IC50 was less than 100 nM.
Compound `COc1ccc(-c2cccc3c2COC3=O)c(OCc2ccc(S(C)(=O)=O)cc2)c1OC` [Compound 115, 4-[2-(4-Methanesulfonyl-benzyloxy)-3,4-dimethoxy-phenyl]-3H-isobenzofuran-1-one] has an IC50 of less than 100 nM.
For `COc1ccc(-c2cccc3c2COC3=O)c(OCc2ccc(C(N)=O)cc2)c1OC` [Compound 116, 4-[2,3-Dimethoxy-6-(1-oxo-1,3-dihydro-isobenzofuran-4-yl)-phenoxymethyl]-benzamide], the IC50 was less than 100 nM.
`CNC(=O)c1ccc(COc2c(-c3cccc4c3COC4=O)ccc(OC)c2OC)cc1` [Compound 117, 4-[2,3-Dimethoxy-6-(1-oxo-1,3-dihydro-isobenzofuran-4-yl)-phenoxymethyl]-N-methyl-benzamide] was tested, and the IC50 was less than 100 nM.
In the case of `COc1ccc(-c2cccc3c2COC3=O)c(OCc2ccc(C(=O)N(C)C)cc2)c1OC` [Compound 118, 4-[2,3-Dimethoxy-6-(1-oxo-1,3-dihydro-isobenzofuran-4-yl)-phenoxymethyl]-N,N-dimethyl-benzamide], the IC50 is reported as less than 100 nM.
Work on `COc1ccc(-c2cccc3c2COC3=O)c(OCC2(CO)COC2)c1OC` [Compound 119, 4-[2-(3-Hydroxymethyl-oxetan-3-ylmethoxy)-3,4-dimethoxy-phenyl]-3H-isobenzofuran-1-one] yielded an IC50 of 100 to 500 nM.
With `COc1ccc(-c2ccc3c(c2)CCC3=O)c(OCCC(C)C)c1OC` [Compound 120, 5-[3,4-Dimethoxy-2-(3-methyl-butoxy)-phenyl]-indan-1-one] the IC50 was less than 100 nM.
With `COc1ccc(-c2ccc3c(c2)CCC3=O)c(OCC(C)(C)C)c1OC` [Compound 121, 5-[2-(2,2-Dimethyl-propoxy)-3,4-dimethoxy-phenyl]-indan-1-one] the IC50 was less than 100 nM.
For `COc1ccc(-c2ccc3c(c2)CCC3=O)c(OCC2CCC2)c1OC` [Compound 122, 5-(2-Cyclobutylmethoxy-3,4-dimethoxy-phenyl)-indan-1-one], the IC50 was less than 100 nM.
Work on `COc1ccc(-c2ccc3c(c2)CCC3=O)c(OCCC(C)(C)C)c1OC` [Compound 123, 5-[2-(3,3-Dimethyl-butoxy)-3,4-dimethoxy-phenyl]-indan-1-one] yielded an IC50 of less than 100 nM.
`COc1ccc(-c2ccc3c(c2)CCC3=O)c(OCc2ccc(C(N)=O)cc2)c1OC` [Compound 124, 4-[2,3-Dimethoxy-6-(1-oxo-indan-5-yl)-phenoxymethyl]-benzamide] gave an IC50 of less than 100 nM.
With `COc1ccc(-c2ccc3c(c2)CCC3=O)c(OCC(C)(C)CO)c1OC` [Compound 125, 5-[2-(3-Hydroxy-2,2-dimethyl-propoxy)-3,4-dimethoxy-phenyl]-indan-1-one] the IC50 was less than 100 nM.
`CNC(=O)c1ccc(COc2c(-c3ccc4c(c3)CCC4=O)ccc(OC)c2OC)cc1` [Compound 126, 4-[2,3-Dimethoxy-6-(1-oxo-indan-5-yl)-phenoxymethyl]-N-methyl-benzamide] was tested, and the IC50 was less than 100 nM.
For `COc1ccc(-c2ccc3c(c2)CCC3=O)c(OCc2ccc(C(=O)N(C)C)cc2)c1OC` [Compound 127, 4-[2,3-Dimethoxy-6-(1-oxo-indan-5-yl)-phenoxymethyl]-N,N-dimethyl-benzamide], the IC50 was less than 100 nM.
With `COc1ccc(-c2ccc3c(c2)CCC3=O)c(OCc2cccc(C(=O)N(C)C)c2)c1OC` [Compound 128, 3-[2,3-Dimethoxy-6-(1-oxo-indan-5-yl)-phenoxymethyl]-N,N-dimethyl-benzamide] the IC50 was less than 100 nM.
With `COc1ccc(-c2ccc3c(c2)CCC3=O)c(OCC2(CO)COC2)c1OC` [Compound 129, 5-[2-(3-Hydroxymethyl-oxetan-3-ylmethoxy)-3,4-dimethoxy-phenyl]-indan-1-one] the IC50 was 100 to 500 nM.
For `COc1ccc(-c2ccc3c(c2)CCC3=O)c(OCc2ccc(S(C)(=O)=O)cc2)c1OC` [Compound 130, 5-[2-(4-Methanesulfonyl-benzyloxy)-3,4-dimethoxy-phenyl]-indan-1-one], the IC50 was less than 100 nM.
With `COc1ccc(-c2ccc3c(c2)COC3=O)c(OCCC(C)C)c1OC` [Compound 131, 5-[3,4-Dimethoxy-2-(3-methyl-butoxy)-phenyl]-3H-isobenzofuran-1-one] the IC50 was less than 100 nM.
`COc1ccc(-c2ccc3c(c2)COC3=O)c(OCC(C)(C)C)c1OC` [Compound 132, 5-[2-(2,2-Dimethyl-propoxy)-3,4-dimethoxy-phenyl]-3H-isobenzofuran-1-one] was tested, and the IC50 was less than 100 nM.
`COc1ccc(-c2ccc3c(c2)COC3=O)c(OCC2CCC2)c1OC` [Compound 133, 5-(2-Cyclobutylmethoxy-3,4-dimethoxy-phenyl)-3H-isobenzofuran-1-one] gave an IC50 of less than 100 nM.
`COc1ccc(-c2ccc3c(c2)COC3=O)c(OCC2(CO)COC2)c1OC` [Compound 134, 5-[2-(3-Hydroxymethyl-oxetan-3-ylmethoxy)-3,4-dimethoxy-phenyl]-3H-isobenzofuran-1-one] gave an IC50 of less than 100 nM.
`COc1ccc(-c2ccc3c(c2)COC3=O)c(OCCC(C)(C)C)c1OC` [Compound 135, 5-[2-(3,3-Dimethyl-butoxy)-3,4-dimethoxy-phenyl]-3H-isobenzofuran-1-one] showed an IC50 of less than 100 nM.
`COc1ccc(-c2ccc3c(c2)COC3=O)c(OCc2ccc(C(N)=O)cc2)c1OC` [Compound 136, 4-[2,3-Dimethoxy-6-(1-oxo-1,3-dihydro-isobenzofuran-5-yl)-phenoxymethyl]-benzamide] was tested, and the IC50 was less than 100 nM.
For `COc1ccc(-c2ccc3c(c2)COC3=O)c(OCC(C)(C)CO)c1OC` [Compound 137, 5-[2(3-Hydroxy-2,2-dimethyl-propoxy)-3,4-dimethoxy-phenyl]-3H-isobenzofuran-1-one], the IC50 was less than 100 nM.
`CNC(=O)c1ccc(COc2c(-c3ccc4c(c3)COC4=O)ccc(OC)c2OC)cc1` [Compound 138, 4-[2,3-Dimethoxy-6-(1-oxo-1,3-dihydro-isobenzofuran-5-yl)-phenoxymethyl]-N-methyl-benzamide] was tested, and the IC50 was less than 100 nM.
`COc1ccc(-c2ccc3c(c2)COC3=O)c(OCc2ccc(C(=O)N(C)C)cc2)c1OC` [Compound 139, 4-[2,3-Dimethoxy-6-(1-oxo-1,3-dihydro-isobenzofuran-5-yl)-phenoxymethyl]-N,N-dimethyl-benzamide] gave an IC50 of less than 100 nM.
Work on `COc1ccc(-c2ccc3c(c2)COC3=O)c(OCc2cccc(C(=O)N(C)C)c2)c1OC` [Compound 140, 3-[2,3-Dimethoxy-6-(1-oxo-1,3-dihydro-isobenzofuran-5-yl)-phenoxymethyl]-N,N-dimethyl-benzamide] yielded an IC50 of less than 100 nM.
`COc1ccc(-c2ccc3c(c2)COC3=O)c(OCc2ccc(S(N)(=O)=O)cc2)c1OC` [Compound 141, 4-[2,3-Dimethoxy-6-(1-oxo-1,3-dihydro-isobenzofuran-5-yl)-phenoxymethyl]-benzenesulfonamide] gave an IC50 of less than 100 nM.
